Consider 11 compounds from US8692001B2, “Sulfonamides for the modulation of PKM2” (Dynamix Pharmaceuticals Ltd., priority 2010, dated 2014).

The target of one experiment is T1, PKM2, human recombinant (Homo sapiens, UniProt P14618).
T1 construct: purchased BPS 50295
As to the kind of experiment: PKM2 enzymatic activity assay (Kinase-Glo Plus luminescence). To be noted: PKM2 activation; 0.1 nM PKM2, 0.1 mM ADP, 0.5 mM PEP, room temperature, 1 hour. Type of experiment: biochemical. As for the experimental part:
PKM2 performs the following enzymatic reaction, where the PKM2 substrates, PEP (phosphoenolpyruvate) and ADP, are converted to pyruvate and ATP as follows: PEP+ADP→Pyruvate+ATP. All of the enzymatic reactions were conducted in duplicates at room temperature for 1 hour in a 50 μL mixture containing:
PKM2 assay buffer (50 mM Immidazole, pH 7.2; 7 mM MgCl2; 50 mM KCl; 0.01% Tween; and 0.05% BSA), 0.1 mM ADP, 0.5 mM PEP, 0.1 nM PKM2 enzyme (PKM2, human recombinant (BPS catalog number 50295)) and the indicated test compound.
Fructose 1,6 biphosphate, (FBP (Sigma)) was used as a positive control for activation at concentration of 0.5 mM. After enzymatic reactions, 50 μL of Kinase-Glo® Plus reagent (Promega kit) was added to each well and luminescence was measured using a BioTek Synergy™ 2 microplate reader.
PKM2 activity assays were performed in duplicates at each concentration. The luminescence data were analyzed using the computer software, GraphPad PRISM®. In the absence of the compound, the luminescence was defined as 0% activity. The percent activity in the presence of each compound was calculated according to the following equation: % Activity=[(L−Lb)/(Lt−Lb)−1]×100% where L=the luminescence in the presence of the test compound, Lb=the luminescence in the absence of PKM2, and Lt=the luminescence intensity in the absence of the test compound. The % activity values versus a series of compound concentrations were plotted using non-linear regression analysis of Sigmoidal dose-response curve generated with the equation Y=B+(T−B)/1+10^((LogEC50−X)×Hill Slope), where Y=percent activity, B=minimum percent activity, T=maximum percent activity, X=logarithm of compound and Hill Slope=slope factor or Hill coefficient. The EC50 value was determined for the indicated compounds as the concentration causing a half-maximal percent activity.
Background: In Kinase-Glo more light means more ATP remaining.

Experiment [1] in a line: Cell proliferation and apoptosis over time (cell counts, caspase 3/7 assay), FIG. 3. It is filed as cell-based. As for the experimental part: Additionally, the effect of 5-((2,3-dihydrobenzo[b][1,4]dioxin-6-yl)sulfonyl)-2-methyl-1-(methylsulfonyl)indoline on cell proliferation and apoptosis was measured and the results are shown in FIG. 3.
The subject of experiment [2] is H1299 (Non small cell lung carcinoma cell line). As to the kind of experiment: In vitro cell proliferation, Assay Protocol II (cell proliferation index, fluorescent membrane marker, flow cytometry). The conditions noted are these: Homo sapiens, NCI-H1299, as measured by Assay Protocol II. Type of experiment: cell-based. As for the experimental part:
In a second assay to determine the inhibition of cell proliferation by a compound of the invention, cell proliferation of the cell line of interest was measured by a cell proliferation index assay using Fluofarma® based technology. This assay is based on the dilution rate of a fluorescent membrane marker, which is a direct function of the number of cell divisions. Briefly, the assay is performed by loading the cells with a non-toxic fluorescent phospholipid analog before the seeding. […] Flow cytometry analysis of the fluorescent probe is performed after the loading of the cells both prior to, as well as after treatment with various concentrations of the test compound. The dilution rate of the fluorescent probe at the single cell level is directly correlated to the number of cell divisions.
In general terms: In flow cytometry, cells or beads pass a laser one at a time.

Experiment [3] concerns HepG2 cancer cells (hepatocellular carcinoma cells). As to the kind of experiment: Bioenergetic study, XF24 analyzer (OCR and ECAR). It is filed as cell-based. To be noted: HepG2 cells treated at 100 μM, recorded over an 8 hour period; FIG. 2. The method, then: Bioenergetic studies were performed using XF24 analyzer (Seahorse Bioscience). Oxygen Consumption Rate (OCR), a measure of mitochondrial oxydative phosphorylation, and Extra-Cellular Acidification Rate (ECAR), which represents glycolysis, were recorded over an 8 hour period for cells treated with various test compounds at 100 μM.

In experiment [4] the test system is HeLa (Cervical cancer cell line). As to the kind of experiment: In vitro cell proliferation, Assay Protocol I (CellTiterGlo). It is filed as cell-based. To be noted: Homo sapiens. As for the experimental part: (§1) Growth inhibitory activity against the human tumor cell lines of compounds of the invention was determined using Promega's CellTiterGlo® assay. The cell lines of interest were placed in a 96-well microculture plate (Costar® white, flat bottom #3917) in a total volume of 90 μL/well. After 24 hours of incubation in a humidified incubator at 37° C. with 5% CO2 and 95% air, 10 μL of serially diluted test compounds in growth medium were added to each well. After 96 total hours of culture in a CO2 incubator, the plated cells and CellTiter-Glo® (Promega # G7571) reagents were brought to room temperature to equilibrate for 30 minutes. 100 μL of CellTiter-Glo® reagent was added to each well. The plate was shaken for 2 minutes and then left to equilibrate for 10 minutes before reading luminescence on the Tecan GENios microplate reader.
(§2) Percent inhibition of cell growth was calculated relative to untreated control wells. All tests were performed in triplicate for each concentration level. The IC50 value for the test compounds was estimated using Prism 3.03 by curve-fitting the data.

In experiment [5] the test system is 786-O (Renal cancer cell line). The experiment is described as above. It is filed as cell-based. The conditions noted are these: Homo sapiens, 786-0. The method, then:
as §1, §2

Experiment [6] deals with HT-29 (Colorectal cancer cell line). The experiment is described as above. Type of experiment: cell-based. To be noted: Homo sapiens. As for the experimental part:
as §1, §2

The test system of experiment [7] is H1299 (Non small cell lung carcinoma cell line). Described as above. It is filed as cell-based. To be noted: Homo sapiens, NCI-H1299, 96 total hours of culture. As for the experimental part: as §1, §2
Experiment [8] relates to A549 (Non-small cell lung carcinoma cell line). The description is as above. Type of experiment: cell-based. To be noted: Homo sapiens. As for the experimental part:
as §1, §2

In experiment [9] the test system is Colo-205 (Colorectal cancer cell line). Described as above. It is filed as cell-based. The conditions noted are these: Homo sapiens. The method, then: as §1, §2

T1 sequence (P14618 whole entry): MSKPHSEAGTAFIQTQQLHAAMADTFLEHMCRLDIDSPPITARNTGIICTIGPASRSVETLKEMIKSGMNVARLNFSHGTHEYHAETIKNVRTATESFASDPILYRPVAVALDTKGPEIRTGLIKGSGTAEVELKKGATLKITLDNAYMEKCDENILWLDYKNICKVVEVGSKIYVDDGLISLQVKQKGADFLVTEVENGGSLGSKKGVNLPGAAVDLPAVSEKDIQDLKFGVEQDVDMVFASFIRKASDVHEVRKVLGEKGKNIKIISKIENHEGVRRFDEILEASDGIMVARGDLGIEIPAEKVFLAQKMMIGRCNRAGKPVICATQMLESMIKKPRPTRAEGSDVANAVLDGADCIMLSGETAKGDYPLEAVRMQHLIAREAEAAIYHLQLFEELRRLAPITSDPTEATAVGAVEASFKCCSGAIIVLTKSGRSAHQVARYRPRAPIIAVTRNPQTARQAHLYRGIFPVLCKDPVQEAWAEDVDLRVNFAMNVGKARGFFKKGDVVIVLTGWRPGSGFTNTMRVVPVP

Take `CC1Cc2cc(S(=O)(=O)c3ccc4c(c3)OCCO4)ccc2N1S(C)(=O)=O` (stereo not drawn) [Compound 2A, 5-((2,3-dihydrobenzo[b][1,4]dioxin-6-yl)sulfonyl)-2-methyl-1-(methylsulfonyl)indoline]: at PKM2, human recombinant, the EC50 is 1 to 10 µM. Also, the “Effect on cell proliferation (cell counts)” value in [1] (FIG. 3, as a function of time after treatment) is on record as “induces a period of growth arrest”. Besides, the “Cells that underwent apoptosis (caspase 3/7 assay)” value in experiment [1] (by day 15, FIG. 3) is recorded as “up to 60%”. Also, the IC50 was below 40 µM in [2]; below 60 µM in experiment [4]; below 30 µM in experiment [5]; above 100 µM in experiment [6]; below 10 µM in [7]; below 50 µM in experiment [8]. The IC50 in experiment [9] was below 30 µM. Further, in [3], the “Metabolic activity (OCR and ECAR)” value is “less metabolically active”.
For `CC(=O)N1c2ccc(S(=O)(=O)c3ccc4c(c3)OCCO4)cc2CC1C` (stereo not drawn) [Compound 4A], the EC50 on PKM2, human recombinant lay within 1 to 10 µM.
On to `CS(=O)(=O)N1Cc2ccc(S(=O)(=O)c3ccc4c(c3)OCCO4)cc2C1` [Compound 6A, 5-((2,3-dihydrobenzo[b][1,4]dioxin-6-yl)sulfonyl)-2-(methylsulfonyl)isoindoline], for which the IC50 in [2] was below 20 µM.
For the compound `CS(=O)(=O)N1CCCc2cc(S(=O)(=O)c3ccc4c(c3)OCCO4)ccc21` [Compound 7A], at PKM2, human recombinant, the EC50 fell in the range of 1 to 10 µM.
Same read-out and setting: the figure for `CC(C)N(c1ccc(S(=O)(=O)c2ccc3c(c2)OCCO3)cc1)S(C)(=O)=O` [Compound 10A] is 1 to 10 µM.
In experiment [7], `CS(=O)(=O)N1CCc2cc(S(=O)(=O)c3ccc4c(c3)OCCO4)ccc21` [Compound 11A, 5-((2,3-dihydrobenzo[b][1,4]dioxin-6-yl)sulfonyl)-1-(methylsulfonyl)indoline] registered an IC50 below 20 µM.
`CCN(c1ccc(S(=O)(=O)c2ccc3c(c2)OCCO3)c(C)c1)S(C)(=O)=O` [Compound 12A]: on PKM2, human recombinant, the EC50 was in the range of 1 to 10 µM.
The same measure, in the same setting: next, `C[C@H]1Cc2cc(S(=O)(=O)c3ccc4c(c3)OCCO4)ccc2N1S(=O)(=O)Cc1ccccc1` [Compound 13A]: 1 to 10 µM.
With `Cc1cn(S(C)(=O)=O)c2ccc(S(=O)(=O)c3ccc4c(c3)OCCO4)cc12` [Compound 21A], at PKM2, human recombinant, the EC50 lay in the range of 1 to 10 µM.
The same measure, in the same setting: next, `CC1Cc2cc(S(=O)(=O)Nc3ccc4c(c3)OCCO4)ccc2N1S(C)(=O)=O` (stereo not drawn) [Compound 23A]: 10 to 100 µM.
On to `CCN(c1ccc(S(=O)(=O)c2ccc3c(c2)OCCO3)cc1)S(C)(=O)=O` [Compound 24A], for which, on PKM2, human recombinant, the EC50 fell in the range of 10 to 100 µM.

By EC50 is commonly meant the midpoint of the concentration-response curve. As a reminder, the IC50 is the concentration needed to halve the response being measured.
